Results from the supplement of paper PMC9663587.

Experiments:
[1] = compound: CC(=O)O[C@H]1C(=O)[C@@]2(C)[C@H]([C@H](OC(=O)c3ccccc3)[C@]3(O)C[C@H](OC(=O)[C@H](O)[C@@H](NC(=O)c4ccccc4)c4ccccc4)C(C)=C1C3(C)C)[C@]1(OC(C)=O)CO[C@@H]1C[C@@H]2O [Paclitaxel]
[2] = compound: CC(=O)c1c(C)c2cnc(Nc3ccc(N4CCN(CCOCCOCCOCCNC(=O)COc5cccc6c5C(=O)N(C5CCC(=O)NC5=O)C6=O)CC4)cn3)nc2n(C2CCCC2)c1=O [BSJ-03-123]
[3] = compound: CC1(CCN(CC1)C2=CN=C(C(=N2)N)C3=C(C(=CC=C3)Cl)Cl)N [SHP099]
[4] = compound: CCN1CCN(Cc2ccc(Nc3ncc(F)c(-c4cc(F)c5nc(C)n(C(C)C)c5c4)n3)nc2)CC1
[5] = compound: CCc1cnn2c(NCc3ccc[n+]([O-])c3)cc(N3CCCC[C@H]3CCO)nc12
[6] = compound: COc1cc2nccc(Oc3ccc(NC(=O)C4(C(=O)Nc5ccc(F)cc5)CC4)cc3)c2cc1OC [Cabozantinib]
[7] = compound: NC1(C(=O)N[C@@H](CCO)c2ccc(Cl)cc2)CCN(c2nc[nH]c3nccc2-3)CC1 [AZD5363]
[8] = compound: Nc1cc(C(F)(F)F)c(-c2cc(N3CCOCC3)nc(N3CCOCC3)n2)cn1 [Buparlisib/NVP-BKM120]
[9] = compound: O=C(CCCCCCC(=O)Nc1ccccc1)NO [Vorinostat]
[10] = compound: C=CC(=O)Nc1ccc(C(=O)Nc2[nH]nc3c2CN(C(=O)N[C@H](CN(C)C)c2ccccc2)C3(C)C)cc1 [YKL-5-124]; experiment: GR value, 72 h; higher = faster growth (1 = untreated, <0 = killing);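 note: breast cancer and non-malignant breast epithelial lines, nine half-log doses, viable cells counted by Hoechst and LIVE/DEAD dye imaging versus time-zero plates and DMSO controls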
[11] = compound: CC(=O)c1c(C)c2cnc(Nc3ccc(N4CCNCC4)cn3)nc2n(C2CCCC2)c1=O; experiment: as above
[12] = compound: CCN1CCN(Cc2ccc(Nc3ncc(F)c(-c4cc(F)c5nc(C)n(C(C)C)c5c4)n3)nc2)CC1; experiment: as above
[13] = compound: CCc1cnn2c(NCc3ccc[n+]([O-])c3)cc(N3CCCC[C@H]3CCO)nc12; experiment: as above
[14] = compound: CN(C)C(=O)c1cc2cnc(Nc3ccc(N4CCNCC4)cn3)nc2n1C1CCCC1 [LEE011/Ribociclib]; experiment: as above
[15] = compound: CN(C)C/C=C/C(=O)Nc1ccc(C(=O)N2CCC[C@@H](Nc3ncc(Cl)c(-c4c[nH]c5ccccc45)n3)C2)cc1 [THZ531]; experiment: as above
[16] = compound: CN(C)C/C=C/C(=O)Nc1ccc(C(=O)Nc2cccc(Nc3ncc(Cl)c(-c4c[nH]c5ccccc45)n3)c2)cc1 [THZ1]; experiment: as above
[17] = compound: CN1CC[C@H](c2c(O)cc(O)c3c(=O)cc(-c4ccccc4Cl)oc23)[C@H](O)C1 [Flavopiridol]; experiment: as above
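Throughout, for GR50, 72 h: breast cancer and non-malignant breast epithelial cell lines, Deep Dye Drop or Dye Drop imaging, nine half-log doses, GR normalized to time-zero plates and DMSO-only controls.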

MCF7
GR50, 72 h [1]: 0.00138 µM | GR50, 72 h [2]: 1.42 µM | GR50, 72 h [3]: > 10 µM | GR50, 72 h [4]: 0.0236 µM | GR50, 72 h [5]: 0.00831 µM | GR50, 72 h [6]: 4.82 µM | GR50, 72 h [7]: > 10 µM | GR50, 72 h [8]: 0.187 µM | GR50, 72 h [9]: 0.542 µM | GR value ([10]; 0.001 µM): 0.557 GR | GR value ([10]; 0.003162 µM): 0.403 GR | GR value ([10]; 0.01 µM): 0.316 GR | GR value ([10]; 0.03162 µM): 0.266 GR | GR value ([10]; 0.1 µM): 0.18 GR | GR value ([10]; 0.3162 µM): 0.0831 GR | GR value ([10]; 1 µM): 0.131 GR | GR value ([10]; 3.162 µM): 0.0763 GR | GR value ([10]; 10 µM): -0.269 GR | GR value ([11]; 0.0003162 µM): 1.04 GR | GR value ([11]; 0.001 µM): 1.02 GR | GR value ([11]; 0.003162 µM): 0.962 GR | GR value ([11]; 0.01 µM): 0.85 GR | GR value ([11]; 0.03162 µM): 0.626 GR | GR value ([11]; 0.1 µM): 0.476 GR | GR value ([11]; 0.3162 µM): 0.355 GR | GR value ([11]; 1 µM): 0.297 GR | GR value ([11]; 3.162 µM): 0.254 GR | GR value ([12]; 0.001 µM): 0.893 GR | GR value ([12]; 0.003162 µM): 0.789 GR | GR value ([12]; 0.01 µM): 0.512 GR | GR value ([12]; 0.03162 µM): 0.349 GR | GR value ([12]; 0.1 µM): 0.236 GR | GR value ([12]; 0.3162 µM): 0.235 GR | GR value ([12]; 1 µM): 0.0993 GR | GR value ([12]; 3.162 µM): -0.189 GR | GR value ([12]; 10 µM): -0.268 GR | GR value ([13]; 0.0001 µM): 1.02 GR | GR value ([13]; 0.0003162 µM): 0.997 GR | GR value ([13]; 0.001 µM): 0.979 GR | GR value ([13]; 0.003162 µM): 0.967 GR | GR value ([13]; 0.01 µM): 0.3 GR | GR value ([13]; 0.03162 µM): -0.247 GR | GR value ([13]; 0.1 µM): -0.276 GR | GR value ([13]; 0.3162 µM): -0.241 GR | GR value ([13]; 1 µM): -0.255 GR | GR value ([14]; 0.001 µM): 0.87 GR | GR value ([14]; 0.003162 µM): 0.786 GR | GR value ([14]; 0.01 µM): 0.682 GR | GR value ([14]; 0.03162 µM): 0.651 GR | GR value ([14]; 0.1 µM): 0.53 GR | GR value ([14]; 0.3162 µM): 0.414 GR | GR value ([14]; 1 µM): 0.407 GR | GR value ([14]; 3.162 µM): 0.275 GR | GR value ([14]; 10 µM): 0.295 GR | GR value ([15]; 0.0001 µM): 0.957 GR | GR value ([15]; 0.0003162 µM): 1.06 GR | GR value ([15]; 0.001 µM): 0.957 GR | GR value ([15]; 0.003162 µM): 1.02 GR | GR value ([15]; 0.01 µM): 1.08 GR | GR value ([15]; 0.03162 µM): 0.827 GR | GR value ([15]; 0.1 µM): 0.225 GR | GR value ([15]; 0.3162 µM): -0.0791 GR | GR value ([15]; 1 µM): -0.391 GR | GR value ([16]; 0.0001 µM): 1.08 GR | GR value ([16]; 0.0003162 µM): 0.931 GR | GR value ([16]; 0.001 µM): 0.926 GR | GR value ([16]; 0.003162 µM): 0.941 GR | GR value ([16]; 0.01 µM): 0.78 GR | GR value ([16]; 0.03162 µM): 0.366 GR | GR value ([16]; 0.1 µM): -0.103 GR | GR value ([16]; 0.3162 µM): -0.305 GR | GR value ([16]; 1 µM): -0.461 GR | GR value ([17]; 0.0001 µM): 1.08 GR | GR value ([17]; 0.0003162 µM): 0.929 GR | GR value ([17]; 0.001 µM): 0.872 GR | GR value ([17]; 0.003162 µM): 0.964 GR | GR value ([17]; 0.01 µM): 0.873 GR | GR value ([17]; 0.03162 µM): 0.834 GR | GR value ([17]; 0.1 µM): 0.424 GR | GR value ([17]; 0.3162 µM): -0.258 GR | GR value ([17]; 1 µM): -0.272 GR
